Tested on: rabbit aorta
Assay: Anti-atherosclerotic experiment: cholesterol-fed rabbits, aorta stained with Oil red O
Type: in vivo, Chinchilla rabbits
Settings: 1% cholesterol diet, 15 weeks, in drinking water; dihydrogen phosphate 165 mg/kg, hydrogen fumarate 174 mg/kg; compared with control and Meldonium dihydrate (124 mg/kg) groups
Description: Pharmacological experiment was carried out to examine the anti-atherosclerotic effect of Meldonium dihydrogen phosphate or Meldonium hydrogen fumarate in the aorta.
The experiments with Meldonium salt such as Meldonium dihydrogen phosphate or Meldonium hydrogen fumarate, were performed in 38 Chinchilla rabbits weighing 2.5-3.0 kg. The rabbits were randomly divided into 4 groups: Control (n=11), Meldonium dihydrate group (n=9) and Meldonium dihydrogen phosphate group (n=9) and Meldonium hydrogen fumarate group (n=9).
Experimental atherosclerosis, i.e. serum hyperlipidaemia and the atherosclerotic manifestations in the aorta, was induced by administering 1% cholesterol by weight together with standard diet.
The rabbits were fed with standard diet with 1% cholesterol dissolved in the sunflower seed oil (4% from the total amount of food). The diet was enriched with cholesterol as follows: 10 kg standard food for rabbits was heated to 60° C. and was mixed with 100 g warm cholesterol dissolved in 400 ml sunflower seed oil. The rabbits received 200 g of this food per day.
The experimental groups were given Meldonium dihydrate, Meldonium dihydrogen phosphate and Meldonium hydrogen fumarate, in a dose 124 mg/kg, 165 mg/kg and 174 mg/kg. The preparations were added to drinking water.
After 15 weeks the rabbits were sacrificed. Heart, aorta and liver were collected for examination. […]

Row | Structure (SMILES) | reduction of the area of atherosclerotic plaque in rabbit aorta
1 | C[N+](C)(C)NCCC(=O)O.O=C([O-])C=CC(=O)O [Meldonium hydrogen fumarate] | > 2 fold
2 | C[N+](C)(C)NCCC(=O)O.O=P([O-])(O)O [Meldonium dihydrogen phosphate] | > 2 fold
